Results taken from patent US7728040B1, “Polyamine conjugates as selective NMDA inhibitors and anti-cancer drugs” (University of Central Florids Research Foundation, Inc., priority 2002, dated 2010).

What was measured:
L1210 cells = assay: Cytotoxicity in L1210 cells; type: cell-based; details: Mus musculus; L1210 cells, no DFMO; read-out: L1210 IC50
L1210 cells + DFMO = assay: Cytotoxicity in L1210 cells pretreated with DFMO; type: cell-based, mouse; details: Mus musculus; L1210 cells pretreated with DFMO; read-out: L1210 + DFMO IC50
polyamine transporter = assay: Ki, affinity for the polyamine transporter in L1210 cells; type: binding, mouse
Procedure: Biological Evaluation. Three cell lines were chosen for bioassay. L1210 (mouse leukemia) cells were selected for comparison with the published IC50 and Ki values determined for a variety of polyamine substrates. In this regard both Ki and IC50 values were measured in this line for comparison purposes. Chinese hamster ovary (CHO) cells were chosen along with a mutant cell line (CHO-MG) in order to comment on polyamine transporter affinity and cell selectivity. The CHO-MG cell line is polyamine-transport deficient and was isolated after chronic selection for growth resistance to methylglyoxalbis (guanylhydrazone). For the purposes of this study, the CHO-MG cell line represents cells with limited polyamine transport activity. In contrast, the parent CHO cell line illustrates cell types with active polyamine transport. Comparison of efficacy in these two lines provided an important screen to detect conjugate delivery via the polyamine transporter, PAT. For example, a conjugate with high utilization of the transporter would be very toxic to CHO cells, but less so to CHO-MG cells. Therefore, IC50 determination in these two CHO lines provided a relative ranking of delivery via the PAT.

CHO-MG cells = assay: Cytotoxicity in CHO-MG cells (polyamine-transport deficient); type: cell-based, Chinese hamster; details: Cricetulus griseus, polyamine-transport deficient line, read-out: CHO-MG IC50
CHO cells = assay: Cytotoxicity in CHO cells (active polyamine transporter); type: cell-based, Chinese hamster
[1] = Metabolic de-alkylation to homospermidine in treated cells; type: in vitro ADME; details: cells treated with compound
Excerpt: N-Alkylpolyamines can be broken down into their de-alkylated components by cellular metabolic pathways. For example, a N-alkyl-4,4-triamine ([…]2, where R is alkyl) can be converted into homospermidine, H2N(CH2)4NH(CH2)4NH2.

In the case of `Cl.Cl.Cl.NCCCCN(CCCCN)Cc1c2ccccc2cc2ccccc12` [Compound 8e, N-(4-Amino-butyl)-N-anthracen-9-ylmethyl-butane-1,4-diamine, trihydrochloride], the IC50 (L1210 cells) is reported as 0.3 µM, the IC50 (L1210 cells + DFMO) is reported as 0.15 µM and the Ki (polyamine transporter) is reported as 1.8 µM. For the same compound, the IC50 (CHO-MG cells) was 66.7 µM, the IC50 (CHO cells; Cricetulus griseus, CHO, active polyamine transporter, read-out: CHO IC50) was 0.45 µM and the “CHO-MG/CHO IC50 ratio” value (CHO cells; selectivity for cells with active polyamine transporter, trihydrochloride) was 148. The “formation of homospermidine in treated cells (de-alkylation)” value [1] was “did not form homospermidine”.
